Laboratory results taken from ChEMBL document CHEMBL3627630, “Fragment-based discovery of potent ERK2 pyrrolopyrazine inhibitors” (Bioorg Med Chem Lett, 2015).

Biological target: T1, Mitogen-activated protein kinase 1 (Homo sapiens, UniProt P28482)
Experiment: Inhibition of human recombinant ERK2 expressed in Escherichia coli using Omnia peptide S/T17 as substrate measured every 50 seconds for 30 mins

T1 sequence (P28482 whole entry): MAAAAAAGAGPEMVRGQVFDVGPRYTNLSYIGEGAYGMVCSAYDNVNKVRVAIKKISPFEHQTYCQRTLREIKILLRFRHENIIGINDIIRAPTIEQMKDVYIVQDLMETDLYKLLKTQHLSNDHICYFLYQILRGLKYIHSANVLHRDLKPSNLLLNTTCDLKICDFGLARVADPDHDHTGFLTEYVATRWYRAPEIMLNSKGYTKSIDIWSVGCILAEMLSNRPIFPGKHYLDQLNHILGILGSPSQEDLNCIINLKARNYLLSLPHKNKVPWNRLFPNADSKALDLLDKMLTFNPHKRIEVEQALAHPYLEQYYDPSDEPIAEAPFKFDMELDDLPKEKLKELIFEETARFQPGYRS

Row | IC50 [µM] | Compound
1 | 0.072 | Cn1cc(-c2c[nH]c3ncc(-c4ccncc4)nc23)cn1

Biological target: T1, Mitogen-activated protein kinase 1
Experiment: Inhibition of ERK2 (unknown origin) using 5FAM-IPTSPITTTYFFFKKK as substrate after 1 hr by LC3K assay

Row | IC50 [µM] | Compound
2 | > 200 | Brc1cnc2[nH]ccc2n1
3 | 50.1 | c1ccc(-c2cnc3[nH]ccc3n2)cc1
4 | > 200 | NC(=O)c1cccc(-c2cnc3[nH]ccc3n2)c1
5 | > 200 | Oc1cccc(-c2cnc3[nH]ccc3n2)c1
6 | 44.1 | NC(=O)c1ccc(-c2cnc3[nH]ccc3n2)cc1
7 | 89.7 | COc1ccc(-c2cnc3[nH]ccc3n2)cc1
8 | 29.7 | Fc1ccc(-c2cnc3[nH]ccc3n2)cc1
9 | 12.4 | Oc1ccc(-c2cnc3[nH]ccc3n2)cc1
10 | 11.7 | c1cc(-c2cnc3[nH]ccc3n2)ccn1
11 | 21.6 | Fc1cc(-c2cnc3[nH]ccc3n2)ccn1
12 | 71.5 | c1cncc(-c2cnc3[nH]ccc3n2)c1
13 | 5.9 | c1cc2nc(-c3cn[nH]c3)cnc2[nH]1
14 | 22.5 | Cn1cc(-c2cnc3[nH]ccc3n2)cn1
15 | 14 | Cc1n[nH]c(C)c1-c1cnc2[nH]ccc2n1
16 | 22.2 | Cc1n[nH]cc1-c1cnc2[nH]ccc2n1
17 | 31.9 | c1cc2nc(-c3ccc4cn[nH]c4c3)cnc2[nH]1
18 | 0.407 | c1cncc(-c2cnc3[nH]cc(-c4cccnc4)c3n2)c1

Row | IC50 [µM] | Compound
19 | 2.2 | c1cc(-c2cnc3[nH]cc(-c4cncnc4)c3n2)ccn1
20 | 0.28 | c1cncc(-c2c[nH]c3ncc(-c4cn[nH]c4)nc23)c1
21 | 1.05 | c1ncc(-c2c[nH]c3ncc(-c4cn[nH]c4)nc23)cn1
22 | 0.252 | COc1ccc(-c2c[nH]c3ncc(-c4ccncc4)nc23)cn1
23 | 0.468 | Nc1ccc(-c2c[nH]c3ncc(-c4ccncc4)nc23)cn1
24 | 0.634 | Cc1ccc(-c2c[nH]c3ncc(-c4ccncc4)nc23)cn1
25 | 0.182 | Clc1ccc(-c2c[nH]c3ncc(-c4ccncc4)nc23)cn1
26 | 0.94 | c1cc(-c2cnc3[nH]cc(-c4ccn[nH]4)c3n2)ccn1
27 | 0.354 | c1cc(-c2cnc3[nH]cc(-c4cn[nH]c4)c3n2)ccn1
28 | 0.149 | CCn1cc(-c2c[nH]c3ncc(-c4ccncc4)nc23)cn1
29 | 0.071 | CCCn1cc(-c2c[nH]c3ncc(-c4ccncc4)nc23)cn1
30 | 0.091 | CC(C)Cn1cc(-c2c[nH]c3ncc(-c4ccncc4)nc23)cn1
31 | 0.623 | OCCCn1cc(-c2c[nH]c3ncc(-c4ccncc4)nc23)cn1
32 | 0.416 | c1cc(-c2cnc3[nH]cc(-c4cnn(CCN5CCOCC5)c4)c3n2)ccn1
33 | 2 | c1ccc(CCn2cc(-c3c[nH]c4ncc(-c5ccncc5)nc34)cn2)cc1
34 | 0.037 | c1ccc(Cn2cc(-c3c[nH]c4ncc(-c5ccncc5)nc34)cn2)cc1

Biological target: T1, Mitogen-activated protein kinase 1
Experiment: Binding affinity to ERK2 (unknown origin) by surface plasmon resonance assay

Row | Kd [µM] | Compound
35 | 125 | Brc1cnc2[nH]cc(I)c2n1
36 | 343 | c1cnc2[nH]ccc2n1
37 | 319 | Brc1cnc2[nH]ccc2n1
38 | 97 | Brc1c[nH]c2nccnc12

Row | Compound | Kd [µM]
39 | c1ccc(CNc2ncnc3nc[nH]c23)cc1 [6-BENZYLAMINOPURINE] | 247
